Peptide text beside a SMILES is read from it. * marks the point of attachment. Cbz = O=C(OCc1ccccc1)*; CH2F = FC*
Key:
[1] = tested on: oesophageal cancer cell lines EC9706 and TE10; test: Colony formation assay; assay type: cell-based, human
Procedure: Oesophageal cancer cells were inoculated into 6-well plates at a density of 8×10^2 cells/well and treated with different concentrations of CAR. The cells were continuously cultured for two weeks until colonies visible to the naked eye had formed. Then, the supernatant was discarded, and crystal violet staining solution was added for 10 min. The cells were dried and photographed, and the colony formation rate was calculated.

[2] = tested on: PI3K/AKT signalling pathway in EC9706 cells; test: Western blot, PI3K/AKT signalling pathway; assay type: cell-based, human
Procedure: (§1) Oesophageal cancer cells were inoculated into a 6-well plate (5×10^5 cells/well). Cells were treated with different concentrations of CAR and then incubated for an additional 48 h. The cells were lysed using radio-immunoprecipitation assay (RIPA) buffer. The protein concentration was determined using a BCA kit. Proteins were separated by 8-12% sodium dodecyl sulfate-polyacrylamide gel electrophoresis (SDS-PAGE) and then transferred to a polyvinylidene fluoride (PVDF) membrane. The membrane was blocked with 5% nonfat milk for 1 h and then incubated with primary antibodies at 4 °C overnight. The membrane was then incubated with secondary antibodies for 1 h at room temperature. Finally, the membrane was imaged using a chemiluminescence imaging analyser. The greyscale value of each target protein band was analysed using the software provided with the analyser.

[3] = tested on: EC9706 and TE10 oesophageal cancer cells; test: Hoechst 33258 staining, apoptosis; assay type: cell-based, human
Procedure: Cells were seeded into 24-well plates (3×10^4 cells/well). The cells were treated with different concentrations of CAR and then incubated for 48 h, followed by fixation with 4% paraformaldehyde for 30 min and one wash with PBS. The cells were stained with Hoechst 33258 (50 ng/ml) for 30 min. Apoptotic cells were observed using a fluorescence microscope (apoptotic cells were characterized by dense chromatin), and five randomly selected fields were used for cell counting.

EC9706 and TE10 cells [4] = test: Transwell migration assay; assay type: cell-based, human
Procedure: (§2) A total of 100 μL of Matrigel was placed in the upper chamber of a Transwell system and incubated at 37 °C for 2 h to form a white membrane visible to the naked eye. Cells were resuspended in serum-free medium and adjusted to a concentration of 3×10^4 cells/well. Medium containing 10% FBS was added into the lower chamber, and CAR was added based on a concentration gradient. Next, the cells were incubated for 48 h and then stained with crystal violet for 10 min. Then, an inverted microscope was used to observe the cells; five fields were randomly selected to observe and count the cells. To assess cell migration, all the above steps were repeated, but Matrigel was not added to the upper chamber.

EC9706 cells [5] = test: Annexin V-FITC/PI flow cytometry, apoptosis; assay type: cell-based, human; settings: co-incubation with CAR
Procedure: After the oesophageal cancer cells were treated with different concentrations of CAR for 48 h, the cells were digested with trypsin, washed twice with PBS, and resuspended in 1× loading buffer. The cells were double-stained with 5 µL of annexin V-FITC and 5 μL of PI and then incubated in the dark for 30 min before flow cytometry analysis.

EC9706 cells [6] = test: MTT assay, cell viability and IC50; assay type: cell-based, human
Procedure: (§3) EC9706 and TE10 oesophageal cancer cells in the logarithmic growth phase were harvested and inoculated into 96-well plates at a density of 3000 cells/well. The cells were cultured in an incubator for 12 h and then treated with different concentrations of CAR and DMSO. The NC group was also set up. After incubation for 24 h or 48 h, 10 µL of MTT solution (5 mg/ml) was added to each well. The supernatant was aspirated, and 100 µL of DMSO was added to each well. The absorbance at a wavelength of 490 nm was measured using a microplate reader.

TE10 cells = test: MTT assay, cell viability and IC50; assay type: cell-based, human
Procedure: as §3

[7] = tested on: human normal oesophageal cells (HET-1A); test: MTT assay, IC50 in normal cells; assay type: cell-based; settings: 24 h and 48 h
Procedure: as §3
(§4) Supplementary Figure 1 (A -D) EC9706 and TE10 cells were treated with different concentrations of CAR or DMSO, and cell viability and the IC50 at 24 h and 48 h were examined by MTT assay. (E-H) HET-1A and GES-1 cells were treated with different […]
(§5) examined by MTT assay. (I-J) EC9706 cells were incubated with CAR or the caspase inhibitor Z-VAD- FMK or co-incubated, and mitochondrial apoptosis pathway- related proteins were detected by Western blot. […]
(§6) reverse the expression of Bcl2, Bax, Bad, caspase- 3, and cleaved caspase- 3. (K and L) The apoptosis of EC9706 cells after applying the caspase inhibitor Z-VAD- FMK was detected by […]
(§7) (1 picture or pasted object on this page, not shown here)

[8] = tested on: normal gastric epithelial cells (GES-1); test: MTT assay, IC50 in normal cells; assay type: cell-based, human; settings: GES-1, 24 h and 48 h
Procedure: as §3, §4, §5, §6, §7

[9] = tested on: oesophageal cancer cell lines EC9706 and TE10; test: Crystal violet staining, cell proliferation; assay type: cell-based, human; settings: 4, 6, 8, 10 µM; 24 h and 48 h; similar in MTT assay
Procedure: Oesophageal cancer cells at a density of 3×10^4 cells/well were seeded in 24-well plates. Then, the cells were treated with different concentrations of prepared CAR or DMSO, and the NC group was set up. After incubation in an incubator for 24 h and 48 h, crystal violet staining solution was added to each well. After imaging under a scanner, the cells were fully dissolved in 20% acetic acid solution. To calculate cell viability, the optical density (OD) value of each well was measured at 590 nm using an enzyme-linked immunosorbent assay (ELISA) spectrophotometer.

PCNA in EC9706 cells = test: Western blot, proliferation marker; assay type: cell-based, human; settings: 48 h
Procedure: as §1

[10] = tested on: Bad, Bax, Bcl-2, PARP, caspase-3 in EC9706 cells; test: Western blot, apoptosis-related proteins; assay type: cell-based, human; settings: 48 h
Procedure: as §1

[11] = tested on: E-cadherin, N-cadherin, vimentin, Snail, MMP2, MMP7, MMP9 in EC9706 cells; test: Western blot, EMT-related marker proteins and MMPs; assay type: cell-based, human
Procedure: as §1

[12] = tested on: EC9706 and TE10 oesophageal cancer cells; test: Wound healing assay; assay type: cell-based, human; settings: within 24 h
Procedure: Oesophageal cancer cells were seeded into 6-well plates (5×10^5 cells/well) and then linearly scratched with a 10-μL pipette tip. After treatment for 24 h with different concentrations of CAR, cell migration was observed using an inverted microscope.

EC9706 and TE10 cells [13] = test: Transwell Matrigel invasion assay; assay type: cell-based, human; settings: 48 h
Procedure: as §2

EC9706 xenograft = test: EC9706 tumour xenograft model, tumour growth; assay type: in vivo, nude mice; settings: 5, 15 or 25 mg/kg by gavage once every three days, compared with control group
Procedure: (§8) A suspension of EC9706 cells (2×10^7 cells/ml) was injected into the middle of and posterior to the armpit of 4- to 6-week-old male nude mice. One week after inoculation, a soybean-sized subcutaneous mass appeared in the armpits of the mice. Then, different doses of CAR (5, 15, or 25 mg/kg) or sodium carboxymethyl cellulose (CMC), which served as a control, were administered by gavage once every three days. The body weights of the mice and tumour size were measured at the same time. Mice were euthanized 26 days after drug administration. Immunohistochemistry (IHC) was used to stain the tumours, and stomach tissue was stained with haematoxylin-eosin (HE).

[14] = tested on: PCNA, p-PI3K, p-AKT, Bcl2, vimentin; test: Immunohistochemistry of xenograft tumour tissue; assay type: in vivo, nude mice; settings: with increasing CAR concentrations
Procedure: A suspension of EC9706 cells (2×10^7 cells/ml) was injected into the middle of and posterior to the armpit of 4- to 6-week-old male nude mice. One week after inoculation, a soybean-sized subcutaneous mass appeared in the armpits of the mice. Then, different doses of CAR (5, 15, or 25 mg/kg) or sodium carboxymethyl cellulose (CMC), which served as a control, were administered by gavage once every three days. The body weights of the mice and tumour size were measured at the same time. Mice were euthanized 26 days after drug administration. Immunohistochemistry (IHC) was used to stain the tumours, and stomach tissue was stained with haematoxylin-eosin (HE). Tumour tissues were fixed with 4% paraformaldehyde and embedded in paraffin. Paraffin-embedded tissue blocks were cut into slices with a thickness of 3-5 mm. Tumour sections were immunohistochemically stained with PCNA (1:100), Bcl-2 (1:100), vimentin (1:100), phosphorylated Akt (1:100), and phosphorylated PI3K (1:100) antibodies according to the steps of the immunohistochemistry kit. For HE staining, tissues were sectioned after deparaffinization, stained with haematoxylin and eosin, and mounted on slides with neutral gum.

[15] = Body weight of xenograft mice; assay type: in vivo, nude mice; settings: 5, 15 or 25 mg/kg by gavage, compared with control group
Procedure: as §8

[16] = HE staining of important organs; assay type: in vivo, nude mice; settings: treatment group vs control group
Procedure: as §8
Tumour tissues were fixed with 4% paraformaldehyde and embedded in paraffin. Paraffin-embedded tissue blocks were cut into slices with a thickness of […]. Tumour sections were immunohistochemically stained with PCNA (1:100), Bcl-2 (1:100), vimentin (1:100), phosphorylated Akt (1:100), and phosphorylated PI3K (1:100) antibodies according to the steps of the immunohistochemistry kit. For HE staining, tissues were sectioned after deparaffinization, stained with haematoxylin and eosin, and mounted on slides with neutral gum.

[17] = Blood routine related indexes; assay type: in vivo, nude mice; settings: Mean±SD (n=3)
Procedure: as §8

[18] = Serum ALT, AST and CR levels; assay type: in vivo, nude mice; settings: mean±SD (n=3)
Procedure: as §8

[19] = 48 h, compared with control group
[20] = 5 mg/kg by gavage once every three days
[21] = 15 mg/kg by gavage once every three days
[22] = 25 mg/kg by gavage once every three days

## 740Y-P [reference compound]
[1]; MTT and colony formation assays, co-incubation with CAR
  effect of PI3K agonist on antiproliferation effect of CAR: could partially reverse the antiproliferation effect of CAR
[2]; co-incubation with CAR
  effect of PI3K agonist on CAR inhibition of PI3K/AKT: eliminated the inhibitory effect of CAR on PI3K/AKT in oesophageal cancer cells
[3]; Hoechst 33258 staining and flow cytometry, co-incubation with CAR
  effect of PI3K agonist on apoptosis-promoting effect of CAR: could partially reverse the apoptosis-promoting effect of CAR on EC9706 and TE10 cells
EC9706 and TE10 cells [4]; scratch healing, Transwell migration and invasion assays, co-incubation with CAR
  effect of PI3K agonist on anti-migration and anti-invasion effects of CAR: can partially reverse the anti-migration and anti-invasion effects of CAR on oesophageal cancer cells

## COC(=O)C[C@H](NC(=O)[C@H](C)NC(=O)[C@@H](NC(=O)OCc1ccccc1)C(C)C)C(=O)CF [Z-VAD-FMK] (Cbz-Val-Ala-Asp(OMe)-CH2F)
EC9706 cells [5]
  effect of caspase inhibitor pretreatment on CAR-induced apoptosis: could reverse the apoptosis induced by CAR

## COc1cc(O)cc(O)c1C(=O)/C=C/c1ccccc1 [CAR, Cardamonin]
EC9706 cells [6]; 24 h
  IC50: 12.2 µM
EC9706 cells [6]; 48 h
  IC50: 8.67 µM
TE10 cells; 24 h
  IC50: 12.5 µM
TE10 cells; 48 h
  IC50: 8.4 µM
[7]
  IC50 in normal cells compared with oesophageal cancer cells: higher IC50 values
[8]
  IC50 in normal cells compared with oesophageal cancer cells: higher IC50 values
[9]
  cell proliferation: inhibited oesophageal cancer cell proliferation in time- and concentration-dependent manners
[1]; two weeks culture
  colony formation: significant inhibitory effect on the colony formation of oesophageal cancer cells in a concentration-dependent manner
PCNA in EC9706 cells
  PCNA expression: significantly inhibited PCNA expression
[10]
  expression of anti-apoptosis-related proteins: downregulated the expression level of the anti-apoptosis-related proteins Bcl-2, PARP, and caspase-3
  expression of pro-apoptosis-related proteins: upregulated the expression levels of the pro-apoptosis-related proteins Bad, Bax, cleaved PARP, and cleaved caspase-3
[11]
  E-cadherin expression: upregulated the expression of E-cadherin
  MMP2, MMP7 and MMP9 expression: significantly reduced the expression of MMP2, MMP7, and MMP9
  N-cadherin, vimentin and Snail expression: significantly downregulated the expression of N-cadherin and vimentin as well as the EMT transcription factor Snail
[2]; EC9706 cells, with increasing CAR concentrations
  protein levels of p-PI3K and p-AKT: decreased significantly
[3]; [19]
  number of apoptotic cells: gradually increased with increasing drug concentrations
[12]
  healing rate: gradually decreased with increases in the CAR concentration
EC9706 and TE10 cells [4]; [19]
  cell migration: significantly inhibited oesophageal cancer cell migration
EC9706 and TE10 cells [13]
  invasive ability: significantly inhibited the invasive ability of oesophageal cancer cells
EC9706 xenograft
  tumour growth: significantly inhibited tumour growth
[14]
  expression of PCNA, p-PI3K, p-AKT, Bcl2 and vimentin in tumour: the expression levels of PCNA, p-PI3K, p-AKT, Bcl2, and vimentin were downregulated
[15]
  weight of mice: did not significantly change
[16]
  HE staining of important organs: no difference in HE staining was observed between the treatment group and the control group
[17]; [20]
  Gran: 25.43±2.58%
  HCT: 39.87±7.80%
  HGB: 131.33 ± 6.51 g/L
  LYM: 70.80±4.07%
  MCH: 20.07 ± 0.93 pg
  MCHC: 348.00 ± 12.77 g/L
  MCV: 57.63 ± 1.50 fL
  Mon: 3.77±1.95%
  PLT: 1009±44.24 ×10^9/L
  RBC: 6.91±1.49 ×10^12/L
  WBC: 3.90±0.17 ×10^9/L
[17]; [21]
  Gran: 24.53±2.28%
  HCT: 35.77±1.86%
  HGB: 137.00 ± 19.00 g/L
  LYM: 72.30±3.15%
  MCH: 19.40 ± 2.07 pg
  MCHC: 332.33 ± 19.09 g/L
  MCV: 58.33 ± 2.78 fL
  Mon: 3.17±1.01%
  PLT: 1074.00±42.80 ×10^9/L
  RBC: 6.13±0.08 ×10^12/L
  WBC: 3.82±0.07 ×10^9/L
[17]; [22]
  Gran: 23.53±2.25%
  HCT: 34.30±2.17%
  HGB: 142.33 ± 5.69 g/L
  LYM: 74.13±1.53%
  MCH: 17.93 ± 0.49 pg
  MCHC: 336.00 ± 7.00 g/L
  MCV: 56.03 ± 1.56 fL
  Mon: 3.20±0.87%
  PLT: 1077.00±42.58 ×10^9/L
  RBC: 6.42±0.19 ×10^12/L
  WBC: 3.80±0.14 ×10^9/L
[18]; [20]
  ALT: 25.97±1.19 U/L
  AST: 57.56±2.19 U/L
  CR: 51.41 ± 4.33 µmol/L
[18]; [21]
  ALT: 23.50±2.88 U/L
  AST: 55.38±3.26 U/L
  CR: 49.61 ± 6.54 µmol/L
[18]; [22]
  ALT: 21.04±2.52 U/L
  AST: 57.20±4.16 U/L
  CR: 53.34 ± 7.72 µmol/L

— paper PMC8120183, “Cardamonin inhibits the progression of oesophageal cancer by inhibiting the PI3K/AKT signalling pathway” (Journal of Cancer, 2021)
